Literature values in US9920014B2, “Selective inhibition of bacterial topoisomerase I” (THE FLORIDA INTERNATIONAL BOARD OF TRUSTEES MODESTO A. …, priority 2013, dated 2018).

Target: E. coli DNA topoisomerase I (Escherichia coli, UniProt P06612)
Conditions: reported by Bansal et al. 2012; read-out: E. coli Topo I IC50 (literature value); cited from earlier work

Chain of E. coli DNA topoisomerase I (P06612 whole entry): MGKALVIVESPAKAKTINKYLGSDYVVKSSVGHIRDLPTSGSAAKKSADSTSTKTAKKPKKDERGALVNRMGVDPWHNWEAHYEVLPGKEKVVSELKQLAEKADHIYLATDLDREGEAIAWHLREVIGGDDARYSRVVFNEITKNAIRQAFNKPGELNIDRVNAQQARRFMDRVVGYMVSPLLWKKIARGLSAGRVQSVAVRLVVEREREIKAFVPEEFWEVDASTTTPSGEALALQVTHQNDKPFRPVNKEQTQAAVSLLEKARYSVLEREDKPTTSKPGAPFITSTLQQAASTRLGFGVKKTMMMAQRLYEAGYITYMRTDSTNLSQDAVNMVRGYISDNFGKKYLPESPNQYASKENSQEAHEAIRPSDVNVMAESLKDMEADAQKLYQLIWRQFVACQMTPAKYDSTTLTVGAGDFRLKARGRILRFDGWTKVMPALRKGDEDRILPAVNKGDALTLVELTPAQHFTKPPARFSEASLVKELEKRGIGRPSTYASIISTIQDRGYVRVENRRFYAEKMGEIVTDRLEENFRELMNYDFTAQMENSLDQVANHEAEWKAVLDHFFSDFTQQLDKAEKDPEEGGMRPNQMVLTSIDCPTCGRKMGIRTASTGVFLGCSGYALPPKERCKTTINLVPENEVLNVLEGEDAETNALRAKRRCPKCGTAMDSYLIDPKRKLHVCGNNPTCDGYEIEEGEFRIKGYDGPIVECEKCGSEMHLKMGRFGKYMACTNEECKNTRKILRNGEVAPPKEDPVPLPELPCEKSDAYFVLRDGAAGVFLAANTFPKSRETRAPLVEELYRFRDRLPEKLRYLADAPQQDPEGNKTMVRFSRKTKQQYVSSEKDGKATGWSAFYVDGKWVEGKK

## COc1ccc(-c2nc3ccc(-c4nc5ccc(N6CCN(C)CC6)cc5[nH]4)cc3[nH]2)cc1OC [DMA]
  IC50: 3.8 µM
